Columns and labels:
[1] = tested on: HOP-62; assay: NCI one-dose screening, non-small cell lung cancer HOP-62; type: cell-based, human; conditions: 10 μM
[2] = tested on: SK-MEL-5; assay: NCI one-dose screening, melanoma SK-MEL-5; type: cell-based, human; conditions: 10 μM
[3] = tested on: HCT-116; assay: NCI one-dose screening, colon cancer HCT-116; type: cell-based, human; conditions: 10 μM
[4] = tested on: COLO 205; assay: NCI one-dose screening, colon cancer COLO 205; type: cell-based, human; conditions: 10 μM
[5] = tested on: OVCAR-5; assay: NCI one-dose screening, ovarian cancer OVCAR-5; type: cell-based, human; conditions: 10 μM
[6] = tested on: MDA-MB-231/ATCC; assay: NCI one-dose screening, breast cancer MDA-MB-231/ATCC; type: cell-based, human; conditions: 10 μM
[7] = tested on: NCl/ADR-RES; assay: NCI one-dose screening, breast cancer NCl/ADR-RES; type: cell-based, human; conditions: 10 μM; listed under Ovarian cancer
[8] = tested on: SF-539; assay: NCI one-dose screening, CNS cancer SF-539; type: cell-based, human; conditions: 10 μM
[9] = tested on: HCT-15; assay: NCI one-dose screening, colon cancer HCT-15; type: cell-based, human; conditions: 10 μM
[10] = tested on: PC-3 prostate cancer cell line; assay: SRB assay cell viability, PC-3 prostate cancer cell line; type: cell-based, human; conditions: Homo sapiens, PC-3 prostate cancer cell line, Table II prints no unit, μM printed, read-out: SRB assay: 50% inhibition of cancer cell proliferation of sample concentration (IC50) of PC-3 prostate cancer cell line
[11] = tested on: MALME-3M; assay: NCI one-dose screening, melanoma MALME-3M; type: cell-based, human; conditions: 10 μM
[12] = tested on: 786-O; assay: NCI one-dose screening, renal cancer 786-O; type: cell-based, human; conditions: 10 μM
[13] = tested on: MDA, -MB-435; assay: NCI one-dose screening, breast cancer MDA, -MB-435; type: cell-based, human; conditions: 10 μM; listed under Melanoma
[14] = tested on: SK-OV-3; assay: NCI one-dose screening, ovarian cancer SK-OV-3; type: cell-based, human; conditions: 10 μM
[15] = tested on: NCI-H226; assay: NCI one-dose screening, non-small cell lung cancer NCI-H226; type: cell-based, human; conditions: 10 μM
[16] = tested on: OVCAR-8; assay: NCI one-dose screening, ovarian cancer OVCAR-8; type: cell-based, human; conditions: 10 μM
[17] = tested on: SK-MEL-2; assay: NCI one-dose screening, melanoma SK-MEL-2; type: cell-based, human; conditions: 10 μM
[18] = tested on: SK-MEL-28; assay: NCI one-dose screening, melanoma SK-MEL-28; type: cell-based, human; conditions: 10 μM
[19] = tested on: MCF7; assay: NCI one-dose screening, breast cancer MCF7; type: cell-based, human; conditions: 10 μM
[20] = tested on: UACC-62; assay: NCI one-dose screening, melanoma UACC-62; type: cell-based, human; conditions: 10 μM
[21] = tested on: NCI-H23; assay: NCI one-dose screening, non-small cell lung cancer NCI-H23; type: cell-based, human; conditions: 10 μM
[22] = tested on: UACC-257; assay: NCI one-dose screening, melanoma UACC-257; type: cell-based, human; conditions: 10 μM
[23] = tested on: ACHN; assay: NCI one-dose screening, renal cancer ACHN; type: cell-based, human; conditions: 10 μM
[24] = tested on: LOX IMVI; assay: NCI one-dose screening, melanoma LOX IMVI; type: cell-based, human; conditions: 10 μM
[25] = tested on: TK-10; assay: NCI one-dose screening, renal cancer TK-10; type: cell-based, human; conditions: 10 μM
[26] = tested on: SN12C; assay: NCI one-dose screening, renal cancer SN12C; type: cell-based, human; conditions: 10 μM
[27] = tested on: UO-31; assay: NCI one-dose screening, renal cancer UO-31; type: cell-based, human; conditions: 10 μM
[28] = tested on: M14; assay: NCI one-dose screening, melanoma M14; type: cell-based, human; conditions: 10 μM
[29] = tested on: NCI-H522; assay: NCI one-dose screening, non-small cell lung cancer NCI-H522; type: cell-based, human; conditions: 10 μM
[30] = tested on: RXF, 393; assay: NCI one-dose screening, renal cancer RXF, 393; type: cell-based, human; conditions: 10 μM
[31] = tested on: SNB-75; assay: NCI one-dose screening, CNS cancer SNB-75; type: cell-based, human; conditions: 10 μM
[32] = tested on: T-47D; assay: NCI one-dose screening, breast cancer T-47D; type: cell-based, human; conditions: 10 μM
[33] = tested on: HT29; assay: NCI one-dose screening, colon cancer HT29; type: cell-based, human; conditions: 10 μM
[34] = tested on: U251; assay: NCI one-dose screening, CNS cancer U251; type: cell-based, human; conditions: 10 μM
[35] = tested on: CAKI-1; assay: NCI one-dose screening, renal cancer CAKI-1; type: cell-based, human; conditions: 10 μM
[36] = tested on: human tumor cell lines; assay: NCI one-dose screening, Mean / Delta / Range of growth percent over all tested cell lines; type: cell-based; conditions: 10 μM; for Growth Percent Delta: delta over all cell lines; for Growth Percent Mean: mean over all cell lines; for Growth Percent Range: range over all cell lines
[37] = tested on: BT-549; assay: NCI one-dose screening, breast cancer BT-549; type: cell-based, human; conditions: 10 μM
[38] = tested on: IGROV1; assay: NCI one-dose screening, ovarian cancer IGROV1; type: cell-based, human; conditions: 10 μM
[39] = tested on: HCC-2998; assay: NCI one-dose screening, colon cancer HCC-2998; type: cell-based, human; conditions: 10 μM
[40] = tested on: SNB-19; assay: NCI one-dose screening, CNS cancer SNB-19; type: cell-based, human; conditions: 10 μM
[41] = tested on: EKVX; assay: NCI one-dose screening, non-small cell lung cancer EKVX; type: cell-based, human; conditions: 10 μM
[42] = tested on: A549/ATCC; assay: NCI one-dose screening, non-small cell lung cancer A549/ATCC; type: cell-based, human; conditions: 10 μM
[43] = tested on: MDA-MB-468; assay: NCI one-dose screening, breast cancer MDA-MB-468; type: cell-based, human; conditions: 10 μM

Question: What does the source list for `CCOc1cccc(Sc2cc3c(c4nsnc24)C(=O)c2ccccc2C3=O)c1` [C50, 4-(3-ethoxy-phenylthio)anthra[2,1-c] [1,2,5]thiadiazol-6,11-dione]?
Answer: Growth Percent HOP-62 [1]: 91.94%; Growth Percent SK-MEL-5 [2]: 106.82%; Growth Percent HCT-116 [3]: 100.93%; Growth Percent COLO 205 [4]: 106.49%; Growth Percent OVCAR-5 [5]: 116.60%; Growth Percent MDA-MB-231/ATCC [6]: 100.81%; Growth Percent NCI/ADR-RES [7]: 101.92%; Growth Percent SF-539 [8]: 93.72%; Growth Percent HCT-15 [9]: 103.08%; IC50 [10]: > 15 µM; Growth Percent MALME-3M [11]: 108.70%; Growth Percent 786-0 [12]: 100.25%; Growth Percent MDA-MB-435 [13]: 106.07%; Growth Percent SK-OV-3 [14]: 99.36%; Growth Percent NCI-H226 [15]: 90.47%; Growth Percent OVCAR-8 [16]: 112.41%; Growth Percent SK-MEL-2 [17]: 102.98%; Growth Percent SK-MEL-28 [18]: 112.20%; Growth Percent MCF7 [19]: 78.81%; Growth Percent UACC-62 [20]: 108.85%; Growth Percent NCI-H23 [21]: 94.07%; Growth Percent UACC-257 [22]: 126.28%; Growth Percent ACHN [23]: 103.33%; Growth Percent LOX IMVI [24]: 84.11%; Growth Percent TK-10 [25]: 125.26%; Growth Percent SN12C [26]: 104.76%; Growth Percent UO-31 [27]: 76.69%; Growth Percent M14 [28]: 103.80%; Growth Percent NCI-H522 [29]: 98.19%; Growth Percent RXF 393 [30]: 118.35%; Growth Percent SNB-75 [31]: 77.25%; Growth Percent T-47D [32]: 86.51%; Growth Percent HT29 [33]: 106.40%; Growth Percent U251 [34]: 109.69%; Growth Percent CAKI-1 [35]: 84.23%; Growth Percent Delta [36]: 25.00%; Growth Percent Mean [36]: 101.69%; Growth Percent Range [36]: 49.59%; Growth Percent BT-549 [37]: 103.88%; Growth Percent IGROV1 [38]: 94.67%; Growth Percent HCC-2998 [39]: 105.49%; Growth Percent SNB-19 [40]: 103.22%; Growth Percent EKVX [41]: 102.26%; Growth Percent A549/ATCC [42]: 111.48%; Growth Percent MDA-MB-468 [43]: 108.00%

Question: How did the “Growth Percent HOP-62” value [1] turn out when `O=C1c2ccccc2C(=O)c2c1cc(Sc1cccc(Cl)c1)c1nsnc21` [C37, 4-(3-chlorophenyl-thio)anthra[2,1-c][1,2,5] thiadiazol-6,11-dione] was run?
Answer: 42.12%

Question: What about the “Growth Percent SK-MEL-5” value [2] of the same compound?
Answer: 19.02%

Question: What about the “Growth Percent HCT-116” value [3] of the same compound?
Answer: −67.84%

Question: And the “Growth Percent COLO 205” value [4]?
Answer: 105.98%

Question: And the “Growth Percent OVCAR-5” value [5]?
Answer: 108.55%

Question: What about the “Growth Percent MDA-MB-231/ATCC” value [6] of the same compound?
Answer: −29.08%

Question: What about the “Growth Percent NCI/ADR-RES” value [7] of the same compound?
Answer: −15.13%

Question: What about the “Growth Percent SF-539” value [8] of the same compound?
Answer: −52.72%

Question: What about the “Growth Percent HCT-15” value [9] of the same compound?
Answer: 17.97%

Question: And the IC50 [10]?
Answer: 5.64 µM

Question: What about the “Growth Percent MALME-3M” value [11] of the same compound?
Answer: −86.56%

Question: What about the “Growth Percent 786-0” value [12] of the same compound?
Answer: −2.06%

Question: And the “Growth Percent MDA-MB-435” value [13]?
Answer: −82.33%

Question: What about the “Growth Percent SK-OV-3” value [14] of the same compound?
Answer: 95.44%

Question: And the “Growth Percent NCI-H226” value [15]?
Answer: 78.07%

Question: And the “Growth Percent OVCAR-8” value [16]?
Answer: −22.92%

Question: What about the “Growth Percent SK-MEL-2” value [17] of the same compound?
Answer: −53.17%

Question: What about the “Growth Percent SK-MEL-28” value [18] of the same compound?
Answer: 24.96%

Question: And the “Growth Percent MCF7” value [19]?
Answer: −69.36%

Question: And the “Growth Percent UACC-62” value [20]?
Answer: −64.98%

Question: What about the “Growth Percent NCI-H23” value [21] of the same compound?
Answer: −26.91%

Question: And the “Growth Percent UACC-257” value [22]?
Answer: −84.59%

Question: And the “Growth Percent ACHN” value [23]?
Answer: −92.53%

Question: What about the “Growth Percent LOX IMVI” value [24] of the same compound?
Answer: −59.25%

Question: What about the “Growth Percent TK-10” value [25] of the same compound?
Answer: 53.81%

Question: What about the “Growth Percent SN12C” value [26] of the same compound?
Answer: −66.17%

Question: What about the “Growth Percent UO-31” value [27] of the same compound?
Answer: −74.79%

Question: What about the “Growth Percent M14” value [28] of the same compound?
Answer: −76.44%

Question: What about the “Growth Percent NCI-H522” value [29] of the same compound?
Answer: 7.18%

Question: What about the “Growth Percent RXF 393” value [30] of the same compound?
Answer: −27.84%

Question: What about the “Growth Percent SNB-75” value [31] of the same compound?
Answer: 26.08%

Question: And the “Growth Percent T-47D” value [32]?
Answer: −42.26%

Question: What about the “Growth Percent HT29” value [33] of the same compound?
Answer: 102.17%

Question: What about the “Growth Percent U251” value [34] of the same compound?
Answer: −69.50%

Question: And the “Growth Percent CAKI-1” value [35]?
Answer: −3.69%

Question: What about the “Growth Percent Delta” value [36] of the same compound?
Answer: 86.78%

Question: What about the “Growth Percent Mean” value [36] of the same compound?
Answer: −5.75%

Question: What about the “Growth Percent Range” value [36] of the same compound?
Answer: 201.08%

Question: And the “Growth Percent BT-549” value [37]?
Answer: 36.21%

Question: And the “Growth Percent IGROV1” value [38]?
Answer: −13.50%

Question: And the “Growth Percent HCC-2998” value [39]?
Answer: 101.66%

Question: And the “Growth Percent SNB-19” value [40]?
Answer: 56.88%

Question: And the “Growth Percent EKVX” value [41]?
Answer: 43.65%

Question: And the “Growth Percent A549/ATCC” value [42]?
Answer: 107.48%

Question: What about the “Growth Percent MDA-MB-468” value [43] of the same compound?
Answer: −79.19%

Source: patent US8877748B2, “Heterocyclic fused anthraquinone derivatives, manufacturing method and pharmaceutical composition using thereof” (National Defense Medical Center, priority 2012, dated 2014)
